# What was measured:
# [1] = system: Mycobacterium tuberculosis; test: Antimicrobial activity against Mycobacterium tuberculosis K204 at […] incubation for 6 days by alamar blue assay; assay type: ADME; settings: 144 h
# [2] = system: Mycobacterium tuberculosis; test: Inhibition of Mycobacterium tuberculosis K204 acetyltransferase Eis assessed as potentiation of kanamycin A-induced antimicrobial activity by measuring kanamycin A MIC level at […] pre-incubated for 24 hrs before kanamycin A addition followed by incubation for 6 days by alamar blue assay (Rvb kanamycin A alone MIC = 10 ug/ml)
# [3] = system: Mycobacterium tuberculosis H37Rv
# [4] = system: Mycobacterium tuberculosis; test: Antimicrobial activity against Mycobacterium tuberculosis H37Rv at […] incubation for 6 days by alamar blue assay; assay type: ADME; settings: 144 h
# [5] = system: Mycobacterium tuberculosis; test: (§1) Inhibition of Mycobacterium tuberculosis K204 acetyltransferase Eis assessed as potentiation of kanamycin A-induced antimicrobial activity by measuring kanamycin A MIC level at 100 uM pre-incubated for 24 hrs before kanamycin A addition followed by incubation for 6 days by alamar blue assay (Rvb kanamycin A alone MIC = 10 ug/ml)
# [6] = system: Mycobacterium tuberculosis H37Rv; settings: 100 uM
# [7] = system: Mycobacterium tuberculosis; test: Antimicrobial activity against Mycobacterium tuberculosis K204 at 100 uM incubation for 6 days by alamar blue assay; assay type: ADME; settings: 144 h
# [8] = system: Mycobacterium tuberculosis; test: Antimicrobial activity against Mycobacterium tuberculosis H37Rv at 100 uM incubation for 6 days by alamar blue assay; assay type: ADME; settings: 144 h
# [9] = system: Mycobacterium tuberculosis; settings: 20 uM
# [10] = system: Mycobacterium tuberculosis; test: Antimicrobial activity against Mycobacterium tuberculosis H37Rv at 37 uM incubation for 6 days by alamar blue assay; assay type: ADME; settings: 144 h
# [11] = system: Mycobacterium tuberculosis; test: Antimicrobial activity against Mycobacterium tuberculosis K204 at 37 uM incubation for 6 days by alamar blue assay; assay type: ADME; settings: 144 h
# [12] = system: Mycobacterium tuberculosis; test: Inhibition of Mycobacterium tuberculosis AAC(2')-Ic at 200 uM
# [13] = system: Mycobacterium tuberculosis H37Rv; settings: 23 uM
# [14] = system: Mycobacterium tuberculosis; test: as §1, with “23” for “100”
# [15] = system: Mycobacterium tuberculosis; test: Antimicrobial activity against Mycobacterium tuberculosis H37Rv at 23 uM incubation for 6 days by alamar blue assay; assay type: ADME; settings: 144 h
# [16] = system: Mycobacterium tuberculosis; test: Antimicrobial activity against Mycobacterium tuberculosis K204 at 23 uM incubation for 6 days by alamar blue assay; assay type: ADME; settings: 144 h
# [17] = system: Mycobacterium tuberculosis; test: as §1, with “37” for “100”
# [18] = system: Mycobacterium tuberculosis H37Rv; settings: 37 uM
# [19] = system: Mycobacterium tuberculosis H37Rv; remark: listed apart in the source
# [20] = system: Mycobacterium tuberculosis; test: Antimicrobial activity against Mycobacterium tuberculosis K204 at 25 uM incubation for 6 days by alamar blue assay; assay type: ADME; settings: 144 h
# [21] = system: Mycobacterium tuberculosis H37Rv; settings: 25 uM
# [22] = system: Mycobacterium tuberculosis; test: Antimicrobial activity against Mycobacterium tuberculosis H37Rv at 25 uM incubation for 6 days by alamar blue assay; assay type: ADME; settings: 144 h
# [23] = system: Mycobacterium tuberculosis; test: as §1, with “25” for “100”
# [24] = system: Mycobacterium tuberculosis; test: as §1, with “10” for “100”
# [25] = system: Mycobacterium tuberculosis H37Rv; settings: 10 uM
# [26] = system: Mycobacterium tuberculosis; test: Antimicrobial activity against Mycobacterium tuberculosis K204 at 10 uM incubation for 6 days by alamar blue assay; assay type: ADME; settings: 144 h
# [27] = system: Mycobacterium tuberculosis; test: Antimicrobial activity against Mycobacterium tuberculosis H37Rv at 10 uM incubation for 6 days by alamar blue assay; assay type: ADME; settings: 144 h
# [28] = system: Mycobacterium tuberculosis; test: Antimicrobial activity against Mycobacterium tuberculosis H37Rv at 70 uM incubation for 6 days by alamar blue assay; assay type: ADME; settings: 144 h
# [29] = system: Mycobacterium tuberculosis H37Rv; settings: 70 uM
# [30] = system: Mycobacterium tuberculosis; test: as §1, with “70” for “100”
# [31] = system: Mycobacterium tuberculosis; test: Antimicrobial activity against Mycobacterium tuberculosis K204 at 70 uM incubation for 6 days by alamar blue assay; assay type: ADME; settings: 144 h
# [32] = system: Mycobacterium tuberculosis H37Rv; settings: 8 uM
# [33] = system: Mycobacterium tuberculosis; test: as §1, with “8” for “100”
# [34] = system: Mycobacterium tuberculosis; test: Antimicrobial activity against Mycobacterium tuberculosis K204 at 8 uM incubation for 6 days by alamar blue assay; assay type: ADME; settings: 144 h
# [35] = system: Mycobacterium tuberculosis; test: Antimicrobial activity against Mycobacterium tuberculosis H37Rv at 8 uM incubation for 6 days by alamar blue assay; assay type: ADME; settings: 144 h
# [36] = system: Mycobacterium tuberculosis; test: Antimicrobial activity against Mycobacterium tuberculosis H37Rv at 30 uM incubation for 6 days by alamar blue assay; assay type: ADME; settings: 144 h
# [37] = system: Mycobacterium tuberculosis; test: Antimicrobial activity against Mycobacterium tuberculosis K204 at 30 uM incubation for 6 days by alamar blue assay; assay type: ADME; settings: 144 h
# [38] = system: Mycobacterium tuberculosis H37Rv; settings: 30 uM
# [39] = system: Mycobacterium tuberculosis; test: as §1, with “30” for “100”
Structure (SMILES),MIC [5],MIC [6],Activity [7],Activity [8],other results
CN(c1cccc(Br)c1)S(=O)(=O)c1ccc2[nH]c(=O)c(=O)[nH]c2c1,,,,,Activity [1]: Non-Toxic; MIC [2]: 2.5 µg/mL; MIC [3]: < 1.25 µg/mL; Activity [4]: Non-Toxic
COc1ccccc1N(C)S(=O)(=O)c1ccc2[nH]c(=O)c(=O)[nH]c2c1,10 µg/mL,< 1.25 µg/mL,Non-Toxic,Non-Toxic,
COc1cc(OC)cc(N(C)S(=O)(=O)c2ccc3[nH]c(=O)c(=O)[nH]c3c2)c1,5 to 10 µg/mL,< 1.25 µg/mL,Non-Toxic,Non-Toxic,
O=c1[nH]c2ccc(S(=O)(=O)Nc3ccc(Cl)c(C(F)(F)F)c3)cc2[nH]c1=O,,,,,fold change (FC) [9]: > 3
Cc1cccc(N(C)S(=O)(=O)c2ccc3[nH]c(=O)c(=O)[nH]c3c2)c1,,,,,Activity [10]: Non-Toxic; Activity [11]: Non-Toxic
COc1cccc(N(C)S(=O)(=O)c2ccc3[nH]c(=O)c(=O)[nH]c3c2)c1,< 1.25 µg/mL,< 1.25 µg/mL,Non-Toxic,Non-Toxic,inhibition [12]: 15%
O=c1[nH]c2ccc(S(=O)(=O)Nc3ccc4c(c3)OCCO4)cc2[nH]c1=O,,,,,fold change (FC) [9]: > 3
CC(C)c1ccc(NS(=O)(=O)c2ccc3[nH]c(=O)c(=O)[nH]c3c2)cc1,5 µg/mL,< 1.25 µg/mL,Non-Toxic,Non-Toxic,
COc1cc(N(C)S(=O)(=O)c2ccc3[nH]c(=O)c(=O)[nH]c3c2)cc2ccccc12,10 µg/mL,< 1.25 µg/mL,Non-Toxic,Non-Toxic,
CC(C)c1cccc(N(C)S(=O)(=O)c2ccc3[nH]c(=O)c(=O)[nH]c3c2)c1,,,,,MIC [13]: < 1.25 µg/mL; MIC [14]: 2.5 to 5 µg/mL; Activity [15]: Non-Toxic; Activity [16]: Non-Toxic
Cc1cccc(N(C)S(=O)(=O)c2ccc3nc(O)c(O)nc3c2)c1,,,,,MIC [17]: 2.5 to 5 µg/mL; MIC [18]: < 1.25 µg/mL
Cc1cc(NS(=O)(=O)c2ccc3[nH]c(=O)c(=O)[nH]c3c2)ccc1Br,,,,,fold change (FC) [9]: > 3
CN(c1ccc2ccccc2c1)S(=O)(=O)c1ccc2[nH]c(=O)c(=O)[nH]c2c1,< 1.25 µg/mL,< 1.25 µg/mL,Non-Toxic,Non-Toxic,
CN(c1cccc(C(C)(C)C)c1)S(=O)(=O)c1ccc2[nH]c(=O)c(=O)[nH]c2c1,5 to 10 µg/mL,< 1.25 µg/mL,Non-Toxic,Non-Toxic,
CCc1cccc(N(C)S(=O)(=O)c2ccc3[nH]c(=O)c(=O)[nH]c3c2)c1,,,,,Activity [1]: Non-Toxic; MIC [2]: 5 to 10 µg/mL; Activity [4]: Non-Toxic; MIC [19]: < 1.25 µg/mL
CC(C)c1ccc(N(C)S(=O)(=O)c2ccc3[nH]c(=O)c(=O)[nH]c3c2)cc1,,,,,Activity [20]: Non-Toxic; MIC [21]: < 1.25 µg/mL; Activity [22]: Non-Toxic; MIC [23]: 2.5 to 5 µg/mL
O=c1[nH]c2ccc(S(=O)(=O)Nc3ccccc3)cc2[nH]c1=O,10 µg/mL,< 1.25 µg/mL,Non-Toxic,Non-Toxic,
O=c1[nH]c2ccc(S(=O)(=O)Nc3ccc(Br)cc3)cc2[nH]c1=O,5 µg/mL,< 1.25 µg/mL,Non-Toxic,Non-Toxic,
CN(c1ccccc1)S(=O)(=O)c1ccc2[nH]c(=O)c(=O)[nH]c2c1,5 µg/mL,< 1.25 µg/mL,Non-Toxic,Non-Toxic,
CN(c1ccc(Cl)cc1)S(=O)(=O)c1ccc2[nH]c(=O)c(=O)[nH]c2c1,,,,,MIC [24]: 2.5 µg/mL; MIC [25]: < 1.25 µg/mL; Activity [26]: Non-Toxic; Activity [27]: Non-Toxic
CCCCc1cccc(N(C)S(=O)(=O)c2ccc3[nH]c(=O)c(=O)[nH]c3c2)c1,,,,,Activity [28]: Non-Toxic; MIC [29]: < 1.25 µg/mL; MIC [30]: 5 to 10 µg/mL; Activity [31]: Non-Toxic
CN(c1ccc(Br)cc1)S(=O)(=O)c1ccc2[nH]c(=O)c(=O)[nH]c2c1,,,,,MIC [32]: < 1.25 µg/mL; MIC [33]: 2.5 µg/mL; Activity [34]: Non-Toxic; Activity [35]: Non-Toxic
CN(c1cccc(F)c1)S(=O)(=O)c1ccc2[nH]c(=O)c(=O)[nH]c2c1,,,,,Activity [36]: Non-Toxic; Activity [37]: Non-Toxic; MIC [38]: < 1.25 µg/mL; MIC [39]: 5 µg/mL
